Measured values from ChEMBL document CHEMBL4483862, “Open-source discovery of chemical leads for next-generation chemoprotective antimalarials” (2018).

Tested on: Plasmodium berghei
Experiment: Luciferase/luciferin-expressing antifolate-resistant parasites were used to infect a culture of HepG2 cells that were pre-incubated with compounds. Infected hepatocytes emit light due to the luciferase reaction. Assay results are presented as the percent inhibition of light emission compared to control. […]
Type: functional
Settings: sporozoite; for IC90: read-out: LUCIFERASE INFECTION ASSAY - IC90
[1] = read-out: LUCIFERASE INFECTION ASSAY - IC50

Compound | IC90 | IC50 [1] | other results
COc1cc(OC)c(NC(=O)CN2CCN(Cc3csc4ccccc34)CC2)cc1Cl | 9.45 µM |  | IC50 (HEPG2TOX_HILL_SLOPE 1.28, HEPG2TOX_R_SQUARED 0.885, PBLUC_HILL_SLOPE 11.3, PBLUC_R_SQUARED 0.661, read-out: LUCIFERASE INFECTION ASSAY - IC50): 7.79 µM
Cc1ccc(S(=O)(=O)c2ccc(C(F)(F)F)cc2[N+](=O)[O-])cc1 | > 9.56 µM |  | IC50 (FFLUC_HILL_SLOPE 11, FFLUC_R_SQUARED 0.463, read-out: LUCIFERASE INFECTION ASSAY - IC50): > 9.56 µM
O=C1c2ccccc2O[C@@H](c2ccc(Cl)cc2)[C@@H]1O | > 12 µM |  | IC50 (PBLUC_HILL_SLOPE 64.7, PBLUC_R_SQUARED 0.241, read-out: LUCIFERASE INFECTION ASSAY - IC50): 12 µM
CSc1nnc(-c2csc(S(=O)(=O)Nc3ccccc3Cl)c2)n1C | > 8.23 µM | > 8.23 µM | 
O=C(Nc1ccnn1Cc1ccccc1)c1ccc(C(=O)c2ccccc2)cc1 | > 10 µM |  | IC50 (PBLUC_HILL_SLOPE 1.71, PBLUC_R_SQUARED 0.158, read-out: LUCIFERASE INFECTION ASSAY - IC50): 5.74 µM
Cc1ccc(C(C=CC(C#N)C#N)=Nc2ccc(Cl)cc2)cc1 | > 10.3 µM | > 10.3 µM | 
CCOc1ccc(Oc2ccc(Cl)cc2NCC(=O)N(C)CC(=O)NC(C)C)cc1 | > 10 µM | > 10 µM | 
Fc1cccc(-c2cn3c(-c4ccc5ncccc5c4)cnc3cn2)c1 | 0.986 µM |  | IC50 (HEPG2TOX_HILL_SLOPE 1.51, HEPG2TOX_R_SQUARED 0.947, PBLUC_HILL_SLOPE 2.49, PBLUC_R_SQUARED 0.764, read-out: LUCIFERASE INFECTION ASSAY - IC50): 0.408 µM
N#C/C(=N\Nc1ccc(OC(F)(F)F)cc1)C(=O)c1ccsc1 | 6.42 µM |  | IC50 (HEPG2TOX_HILL_SLOPE 1.43, HEPG2TOX_R_SQUARED 0.957, PBLUC_HILL_SLOPE 2.41, PBLUC_R_SQUARED 0.455, read-out: LUCIFERASE INFECTION ASSAY - IC50): 2.58 µM
O=C(Nc1ncc(Cc2cccc(Cl)c2Cl)s1)c1ccncc1 | 7.55 µM | 3.27 µM | 
FC(F)(F)c1cc(Nc2nc(-c3cc(-c4ccc(Cl)cc4Cl)no3)cs2)cc(C(F)(F)F)c1 | > 6.29 µM | > 6.29 µM | 
Cc1cc(Cl)c(C)c(S(=O)(=O)Nc2ccccc2N2CCN(C)CC2)c1Cl | > 10 µM |  | IC50 (FFLUC_HILL_SLOPE 13.7, FFLUC_R_SQUARED 0.171, read-out: LUCIFERASE INFECTION ASSAY - IC50): > 10 µM
CC(C)c1nc(-c2c(N)n(Cc3ccccc3)c(=O)n(C)c2=O)sc1C(=O)c1cc(F)ccc1F | > 10 µM | 9.55 µM | 
CCOC(=O)c1ccc(Oc2sccc2[N+](=O)[O-])cc1 | > 11.3 µM | > 11.3 µM | 
Fc1ccc(C(CCNCc2ccccn2)c2ccc(Cl)cc2)cc1 (centres undefined) | > 9.3 µM |  | IC50 (PBLUC_HILL_SLOPE 1.42, PBLUC_R_SQUARED 0.0971, read-out: LUCIFERASE INFECTION ASSAY - IC50): 5.49 µM
O=C(Nc1ccccc1Sc1ncc([N+](=O)[O-])s1)c1cccs1 | > 9.08 µM |  | IC50 (FFLUC_HILL_SLOPE 1.44, FFLUC_R_SQUARED 0.479, read-out: LUCIFERASE INFECTION ASSAY - IC50): > 9.08 µM
Cc1ccc2[nH]c(-c3ccccc3O)nc2c1 | 1.78 µM |  | IC50 (HEPG2TOX_HILL_SLOPE 1.55, HEPG2TOX_R_SQUARED 0.794, PBLUC_HILL_SLOPE 15.6, PBLUC_R_SQUARED 0.425, read-out: LUCIFERASE INFECTION ASSAY - IC50): 1.54 µM
O=C(c1cc(F)cc(F)c1)N1[C@@H]2CC[C@@H](C2)[C@H]1c1nc2c(OCCC3CCCCC3)cccc2[nH]1 | > 10 µM |  | IC50 (FFLUC_HILL_SLOPE 146, FFLUC_R_SQUARED 0.488, HEPG2TOX_HILL_SLOPE 10.5, HEPG2TOX_R_SQUARED 0.576, PBLUC_HILL_SLOPE 12.2, PBLUC_R_SQUARED 0.352, read-out: LUCIFERASE INFECTION ASSAY - IC50): 9.64 µM
Cc1cc(C(=O)OCC(=O)Nc2cccc(C#N)c2)c(C)n1-c1ccccc1 | > 10 µM |  | IC50 (HEPG2TOX_HILL_SLOPE 2.12, HEPG2TOX_R_SQUARED 0.531, read-out: LUCIFERASE INFECTION ASSAY - IC50): > 10 µM
NS(=O)(=O)c1ccc(CCNC(=O)COc2ccccc2Cc2ccccc2)cc1 | 9.31 µM |  | IC50 (PBLUC_HILL_SLOPE 4.18, PBLUC_R_SQUARED 0.0848, read-out: LUCIFERASE INFECTION ASSAY - IC50): 5.51 µM
CC(C)(CSc1ccc(F)cc1)NS(=O)(=O)c1ccc(Cl)cc1 | > 10 µM |  | IC50 (FFLUC_HILL_SLOPE 2.37, FFLUC_R_SQUARED 0.607, HEPG2TOX_HILL_SLOPE 7.41, HEPG2TOX_R_SQUARED 0.381, PBLUC_HILL_SLOPE 2.26, 0.933, PBLUC_R_SQUARED 0.368, 0.781, read-out: LUCIFERASE INFECTION ASSAY - IC50): 4.38 µM

Compound | IC90 | IC50 [1] | other results
COc1ccc(OC)c(CCNc2nc3cnc(-c4cccs4)cc3n2C)c1 | 3.85 µM |  | IC50 (HEPG2TOX_HILL_SLOPE 3.25, HEPG2TOX_R_SQUARED 0.886, PBLUC_HILL_SLOPE 11.1, PBLUC_R_SQUARED 0.592, read-out: LUCIFERASE INFECTION ASSAY - IC50): 3.16 µM
C/C(=N\NC(=S)NC(C)(C)C)c1ccc(OCc2ncc(C(F)(F)F)cc2Cl)cc1 | 0.938 µM | 0.801 µM | 
COc1cc(-c2cnc3cnc(-c4cnn(C)c4)cn23)ccc1O | 3.64 µM |  | IC50 (HEPG2TOX_HILL_SLOPE 7.18, HEPG2TOX_R_SQUARED 0.736, PBLUC_HILL_SLOPE 4.69, PBLUC_R_SQUARED 0.709, read-out: LUCIFERASE INFECTION ASSAY - IC50): 2.28 µM
CNc1nc2cnc(Nc3cccc(C)c3)cc2n1-c1cccc(C(F)(F)F)c1 | > 10 µM |  | IC50 (HEPG2TOX_HILL_SLOPE 1.54, HEPG2TOX_R_SQUARED 0.691, PBLUC_HILL_SLOPE 2.02, PBLUC_R_SQUARED 0.694, read-out: LUCIFERASE INFECTION ASSAY - IC50): 4.3 µM
C/C(=N\c1cc(C(F)(F)F)ccc1Cl)Nc1ccc(C)cc1 | > 10 µM | > 10 µM | 
COc1ccc(-c2cnc3cnc(-c4cccc(F)c4)cn23)cc1 | 7.12 µM |  | IC50 (HEPG2TOX_HILL_SLOPE 2.64, HEPG2TOX_R_SQUARED 0.99, PBLUC_HILL_SLOPE 1.99, PBLUC_R_SQUARED 0.779, read-out: LUCIFERASE INFECTION ASSAY - IC50): 2.36 µM
O=C(Cn1[nH]c(=O)c2ccccc2c1=O)NCc1ccc(CN2CCOCC2)cc1 | > 10 µM | > 10 µM | 
Cc1cc(O)nc(N/N=C/c2cc(C)n(CC(F)(F)F)c2C)n1 | > 10 µM |  | IC50 (HEPG2TOX_HILL_SLOPE 2.49, HEPG2TOX_R_SQUARED 0.474, PBLUC_HILL_SLOPE 1.68, PBLUC_R_SQUARED 0.728, read-out: LUCIFERASE INFECTION ASSAY - IC50): 3.36 µM
O=[N+]([O-])c1ccc(S(=O)(=O)c2ccc(C(F)(F)F)cn2)nc1 | 6.39 µM |  | IC50 (FFLUC_HILL_SLOPE 150, FFLUC_R_SQUARED 0.542, HEPG2TOX_HILL_SLOPE 3, HEPG2TOX_R_SQUARED 0.956, PBLUC_HILL_SLOPE 6.23, PBLUC_R_SQUARED 0.341, read-out: LUCIFERASE INFECTION ASSAY - IC50): 4.49 µM
COc1ccc(C2CC(c3ccccc3)=NN2C(=O)COc2c(Cl)cc(Cl)c3ccc(C)nc23)cc1 (centres undefined) | > 10 µM | > 10 µM | 
Cc1ccc(Sc2ccc(/C=C/c3cc(C(=O)O)c4ccccc4n3)cc2[N+](=O)[O-])cc1 | > 10 µM |  | IC50 (PBLUC_HILL_SLOPE 1.12, PBLUC_R_SQUARED 0.368, read-out: LUCIFERASE INFECTION ASSAY - IC50): 8.94 µM
Cn1cnnc1SCC(=O)NC(Cc1c[nH]c2ccccc12)C(=O)O (centres undefined) | > 10 µM | > 10 µM | 
CCOC(=O)c1sc2nc(CSc3ccccc3)nc(NCC(O)CN(C)C)c2c1C (centres undefined) | > 10 µM |  | IC50 (HEPG2TOX_HILL_SLOPE 7.33, HEPG2TOX_R_SQUARED 0.474, PBLUC_HILL_SLOPE 9.13, PBLUC_R_SQUARED 0.72, read-out: LUCIFERASE INFECTION ASSAY - IC50): 9.05 µM
COc1cccc(-c2cc(=O)[nH]c(Nc3nc(C)c4cc(C)ccc4n3)n2)c1 | > 8.84 µM |  | IC50 (HEPG2TOX_HILL_SLOPE 0.454, HEPG2TOX_R_SQUARED 0.693, PBLUC_HILL_SLOPE 1.82, PBLUC_R_SQUARED 0.608, read-out: LUCIFERASE INFECTION ASSAY - IC50): 2.67 µM
COC(=O)c1cc(NC(=O)Nc2cc(Cl)cc(Cl)c2)ccc1N1CCOCC1 | 4.16 µM |  | IC50 (PBLUC_HILL_SLOPE 7.3, PBLUC_R_SQUARED 0.704, read-out: LUCIFERASE INFECTION ASSAY - IC50): 3.08 µM
COc1ccccc1-n1nnnc1SC(C)C(=O)Nc1ccc2[nH]c(=O)[nH]c2c1 (centres undefined) | > 10 µM | > 10 µM | 
CN(C)S(=O)(=O)c1cccc(C(=O)Nc2cnc3ccccc3c2)c1 | > 10 µM |  | IC50 (PBLUC_HILL_SLOPE 0.341, PBLUC_R_SQUARED 0.599, read-out: LUCIFERASE INFECTION ASSAY - IC50): 0.331 µM
Cc1ccc2nc(NC(=O)c3ccccc3C)c(C(=O)NCC(C)C)n2c1 | 9 µM |  | IC50 (HEPG2TOX_HILL_SLOPE 2.35, HEPG2TOX_R_SQUARED 0.51, PBLUC_HILL_SLOPE 14.9, PBLUC_R_SQUARED 0.347, read-out: LUCIFERASE INFECTION ASSAY - IC50): 7.76 µM
CC(=O)Oc1ccccc1C(=O)NCc1ccc(C)cc1 | > 11.6 µM | > 11.6 µM | 
O=C(Nc1ccc(-c2nccs2)cc1)c1occc1COc1ccccc1 | > 10 µM | > 10 µM | 
CSc1ccc(C=C2C(=O)OC(C)(C)OC2=O)s1 | > 11.6 µM |  | IC50 (HEPG2TOX_HILL_SLOPE 0.602, HEPG2TOX_R_SQUARED 0.801, PBLUC_HILL_SLOPE 0.853, PBLUC_R_SQUARED 0.0835, read-out: LUCIFERASE INFECTION ASSAY - IC50): > 11.6 µM
